# Reference: patent US12446577B2 (priority 2018, dated 2025)
# Legend:
# [1] = test system: lettuce plants; experiment: Phytotoxicity on lettuce plants after spraying; type: in vivo; settings: 2.5% pelargonic acid, sprayed until run-off, n = 6, scale 0 to 100%
# Procedure: A neutralization reaction was made with pelargonic acid (>97%) and choline hydroxide (45%) based on the titration curve (FIG. 1). Based on the titration curve, a stock solution of choline pelargonate (29.1% PLA (>97%) and 40.4% Choline hydroxide (45%)) was made by mixing 14.55 mL pelargonic acid with 15.25 mL distilled water and afterwards the addition of 20.2 mL choline hydroxide. The choline pelargonate stock solution was diluted in distilled water to obtain a diluted choline pelargonate composition comprising about 2.5% pelargonic acid. The total concentration of choline pelargonate in the water spray solution was 37.08 g a.i./L (a.i.=active ingredient).
# The next step was to assess the phytotoxicity of a composition comprising choline pelargonate on lettuce plants. As a control, plants were treated with water. The plants were also treated with a diluted pelargonic acid composition, including a diluted pelargonic acid solution based on the commercial product Beloukha (Belchim Crop Protection).
# Lettuce plants were sprayed with a small hand sprayer until run-off with the respective compositions and incubated at 20° C. Each composition was tested with a setup consisting out of six plants. A visual assessment was made on lettuce plants after spraying. The effect of phytotoxicity (necrosis or discolouration) was scored by a scale from 0 to 100%, with 0% no phytotoxicity and 100% fully phytotoxicity on plants.
# [2] = test system: powdery mildew on apple; experiment: Trial on potted apple trees against powdery mildew; type: in vivo; settings: day 85; weekly sprays (TMAP 10 mL/L; Chemical per Table 13/14); 1000 leaves per object
# Description: During the third week of March 2017, 60 branched apple trees (rootstock M9—clone Golden B) of 2 years were transplanted from a local nursery into pots (pot: 12 Liters). The 60 potted apple plants were maintained outside the greenhouse in S. Michele all′Adige (Trento). Plants were maintained divided in 3 blocks. Each block was composed of 20 plants arranged in two rows (See scheme 1). Plants were watered through a drip irrigation system once or twice a week according to the weather conditions. The insecticidal treatments were applied uniformly on all the experimental plants. Two of the three objects were treated against powdery mildew in accordance with the foreseen spray scheme: Chemical treatments, TMAP alone, untreated. One object was maintained Untreated as reference. For the “Chemical” object, different active ingredients were used alone or in combination (Table 13).
# The treatments were performed at the same time, and timings of spray were done weekly and according to the weather conditions. […]
# Powdery mildew: 5 shoots per each plant were randomly selected and labeled for the assessments. The assessment on powdery mildew was done on day 85, ten leaves of each shoot were singularly evaluated for the presence of symptoms, 5 marked shoots per plant were assessed. […]
# Data of powdery mildew incidence were analyzed using the Statistica 13.1 software.
compound,measurement,setting,value
"CCCCCCCCC(=O)[O-].C[N+](C)(C)CCO [Choline pelargonate, choline pelargonate]",Phytotoxicity (%) evaluation on lettuce plants,[1]; 0 DAA,0.00%
same,Phytotoxicity (%) evaluation on lettuce plants,[1]; 1 DAA,1.33%
same,Phytotoxicity (%) evaluation on lettuce plants,[1]; 2 DAA,1.67%
same,Phytotoxicity (%) evaluation on lettuce plants,[1]; 7 DAA,3.50%
same,disease incidence (percentage of infected leaves),[2],25.5%
